Where a name gives a salt, the structure may show the parent alone. Read-outs that look alike come from different tables or passages of the source.
How the values were obtained:
[1] = target: His-GST-TVMV-hRIPK1(1-324) (Homo sapiens (Human), UniProt Q13546); experiment: RIPK1 HTRF Binding Assay
Protocol: A solution was prepared containing 0.2 nM Anti GST-Tb (Cisbio, 61GSTTLB), 90.6 nM probe and 1 nM His-GST-TVMV-hRIPK1(1-324) in FRET Buffer (20 mM HEPES, 10 mM MgCl2, 0.015% Brij-35, 4 mM DTT, 0.05 mg/mL BSA). Using Formulatrix Tempest, the detection antibody/enzyme/probe solution ([…]) was dispensed into wells of a 1536 plate (Black Low Binding Polystyrene 1536 Plate (Corning, 3724)) containing 10 nL of compounds of interest at appropriate concentration in DMSO. The plate was incubated at rt for 1 h. FRET was measured using the EnVision plate reader (Excitation: 340 nm, Emission: 520 nm/[…]). Total signal (0% inhibition) was calculated from wells containing 10 nL DMSO only.
The coding region of human RIPK1(1-324) flanked by NdeI site at 5′ end and stop codon TGA and XhoI site at 3′ end was codon optimized and gene synthesized at GenScript USA Inc. (Piscataway, N.J.) and subcloned into a modified pFastBacl vector (Invitrogen, Carlsbad, Calif.) with N-terminal His-GST-TVMV tag, to generate His-GST-TVMV-hRIPK1(1-324)-pFB. The fidelity of the synthetic fragment was confirmed by sequencing.

[2] = tested on: MLKL phosphorylation in HT29-L23 human colorectal adenocarcinoma cells; experiment: MLKL Phosphorylation High-Content Assay; format: cell-based; details: 6 h, necroptosis induced with TNFα, SMAC mimetic and Z-VAD, read-out: pMLKL (IC50)
Protocol: MLKL Phosphorylation High-Content Assay
HT29-L23 human colorectal adenocarcinoma cells were maintained in RPMI 1640 medium containing 10% heat-inactivated FBS, 1% Pennicilin-Streptomycin and 10 mM HEPES. Cells were seeded at 2,000 cells/well in 384 w tissue culture-treated microplates (Greiner #781090-3B) and incubated at 37° C. (5% CO2/95% O2) for two days. On the day of assay, the cells were treated with test compounds at final concentrations of 6.25 to 0.106 μM for 30 min at 37° C. (5% CO2/95% O2). Necroptopsis was induced using a mixture of human TNFα (35 ng/mL) (Peprotech #300-01A), SMAC mimetic (from US 2015/0322111 A1) (700 nM) and Z-VAD (140 nM) (BD pharmingen #51-6936). Following six hours incubation at 37° C. (5% CO2/95% O2), the cells were fixed with 4% formaldedye (ACROS 11969-0010) for 15 min at room temperature and then permeabilized with phoshpate buffered saline (PBS) containing 0.2% Triton-X-100 for 10 min. MLKL phosporylation was detected using anti-MLKL (phospho S358) antibody (Abcam # ab187091) (1:1000 dilution in Blocking Buffer [PBS supplemented with 0.1% BSA]) with overnight incubation at 4° C. After washing three times in PBS, goat anti-rabbit Alexa-488 (1:1000 dilution) (Life Technologies, A11008) and Hoechst 33342 (Life Technologies, H3570) (1:2000 dilution) in Blocking Buffer were added for 1 h at room temperature. Following another three cycles of washes in PBS, the microplates were sealed, and cellular images were acquired in the Cellomics ArrayScan VTI high-content imager equipped with an X1 camera. Fluorescent images were taken using a 10× objective and the 386-23 BGRFRN_BGRFRN and 485-20 BGRFRN_BGRFRN filter sets, for nuclei and MLKL phosphorylation, respectively. The image sets were analyzed using the Compartmental Analysis Bioapplication software (Cellomics). The level of MLKL phosphorylation was quantified as MEAN_CircRingAvgIntenRatio. […] The IC50 value was defined as the concentration of compound that produces 50% of the maximal inhibition. The data were fitted using the 4-parameter logistic equation to calculate the IC50 and Ymax values.

[3] = HTRF binding, 1 h at rt, read-out: RIPK1 (IC50)

Chain of His-GST-TVMV-hRIPK1(1-324) (Q13546 1-324): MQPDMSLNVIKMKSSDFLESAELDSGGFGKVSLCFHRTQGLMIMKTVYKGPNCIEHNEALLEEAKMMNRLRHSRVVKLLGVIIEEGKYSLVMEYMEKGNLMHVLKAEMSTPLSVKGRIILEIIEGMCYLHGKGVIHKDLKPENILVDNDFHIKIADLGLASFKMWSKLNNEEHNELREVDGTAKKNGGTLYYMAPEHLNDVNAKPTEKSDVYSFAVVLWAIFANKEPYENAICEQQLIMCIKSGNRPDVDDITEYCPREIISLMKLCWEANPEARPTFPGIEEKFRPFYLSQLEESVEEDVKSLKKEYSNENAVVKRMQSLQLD

Row | Structure (SMILES) | IC50 ([2]; Homo sapiens) [nM] | further results
1 | COc1nc(C)c(-c2ccc3nc(NC(C)=O)cn3n2)cc1C(=O)NCc1cccc(F)c1OCC1CC1 [Example 299, N-{[2-(cyclopropylmethoxy)-3-fluorophenyl]methyl}-5-{2-acetamidoimidazo[1,2-b]pyridazin-6-yl}-2-methoxy-6-methylpyridine-3-carboxamide] | 1 | IC50 [1, 3]: 4 nM
2 | COc1ncc(-c2ccc3nc(NC(=O)CC#N)cn3n2)cc1C(=O)NCc1cc(OC(F)(F)F)ccc1F [Example 33, 5-[2-(2-cyanoacetamido)imidazo[1,2-b]pyridazin-6-yl]-N-{[2-fluoro-5-(trifluoromethoxy)phenyl]methyl}-2-methoxypyridine-3-carboxamide] | 183 | IC50 [1, 3]: 186 nM
3 | COc1cc(C)c(-c2ccc3nc(NC(=O)CO)cn3n2)cc1C(=O)NCc1cc(OC(F)(F)F)ccc1F [Example 422, N-(2-fluoro-5-(trifluoromethoxy)benzyl)-5-(2-(2-hydroxyacetamido)imidazo[1,2-b]pyridazin-6-yl)-2-methoxy-4-methylbenzamide] | 75 | IC50 [1, 3]: 6 nM
4 | COc1ncc(-c2ccc3nc(NC(C)=O)cn3n2)cc1C(=O)NC(C)c1c(F)cccc1OCC1CC1 (stereo not shown) [Example 122, N-{1-[2-(cyclopropylmethoxy)-6-fluorophenyl]ethyl}-5-{2-acetamidoimidazo[1,2-b]pyridazin-6-yl}-2-methoxypyridine-3-carboxamide, TFA] | – | IC50 ([1]; HTRF binding, 1 h at rt, TFA, read-out: RIPK1 (IC50)): 5 nM; IC50 ([2]; TFA): 15 nM
5 | CC(=O)Nc1cn2nc(-c3cc(C(=O)NCc4cc(OC(F)(F)F)ccc4F)c(Cl)cc3C)ccc2n1 [Example 393, 2-chloro-5-{2-acetamidoimidazo [1,2-b]pyridazin-6-yl}-N-{[2-fluoro-5-(trifluoromethoxy)phenyl]methyl}-4-methylbenzamide] | 8 | –
6 | CC(=O)Nc1cn2nc(-c3cc(C(=O)NCC[C@@H](O)c4ccc(Cl)cc4)c(C)cc3F)ccc2n1 [Example 415, N-[(3R)-3-(4-chlorophenyl)-3-hydroxypropyl]-5-{2-acetamidoimidazo[1,2-b]pyridazin-6-yl}-4-fluoro-2-methylbenzamide] | 4 | –
7 | COc1ncc(-c2ccc3nc(NC(C)=O)cn3n2)cc1C(=O)NCc1cc(F)ccc1C(=O)N1CCC(F)(F)C1 [Example 323, N-{[2-(3,3-difluoropyrrolidine-1-carbonyl)-5-fluorophenyl]methyl}-5-{2-acetamidoimidazo[1,2-b]pyridazin-6-yl}-2-methoxypyridine-3-carboxamide] | 9 | –
8 | Cc1ncc(-c2ccc3nc(NC(=O)CN4CCOCC4)cn3n2)cc1C(=O)N[C@H](C)c1cc(OC(F)(F)F)ccc1F [Example 337, N-[(1R)-1-[2-fluoro-5-(trifluoromethoxy)-phenyl]ethyl]-2-methyl-5-{2-[2-(morpholin-4-yl)acetamido]imidazo[1,2-b]pyridazin-6-yl}pyridine-3-carboxamide] | 11 | –
9 | Cc1ncc(-c2ccc3nc(NC(=O)CN4CCOCC4)cn3n2)cc1C(=O)NCC[C@@H](O)c1ccc(Cl)cc1 [Example 345, N-[(3R)-3-(4-chlorophenyl)-3-hydroxypropyl]-2-methyl-5-{2-[2-(morpholin-4-yl)acetamido]imidazo[1,2-b]pyridazin-6-yl}pyridine-3-carboxamide] | 44 | –
10 | CC(=O)Nc1cn2nc(-c3cncc(NS(=O)(=O)c4ccc(F)cc4)c3)ccc2n1 [Example 11 in US2009/0163489, reference compound] | – | IC50 ([1]; comparison compound of US2009/0163489, read-out: IC50 in the RIPK1 assay): 11000 nM
11 | COc1ccc(-c2ccc3nc(NC(C)=O)cn3n2)cc1C(=O)NCc1cc(OC(F)(F)F)ccc1F [Example 418, 5-{2-acetamidoimidazo [1,2-b]pyridazin-6-yl}-N-{[2-fluoro-5-(trifluoromethoxy)phenyl]methyl}-2-methoxybenzamide] | 26 | –
12 | CC(=O)Nc1cn2nc(-c3cc(C(=O)NCc4cccnc4OCC4CCC4)c(C)nc3C)ccc2n1 [Example 86, N-{[2-(cyclobutylmethoxy)pyridin-3-yl]methyl}-5-{2-acetamidoimidazo[1,2-b]pyridazin-6-yl}-2,6-dimethylpyridine-3-carboxamide] | – | IC50 [2]: 27 nM
13 | CC(=O)Nc1cn2nc(-c3c(F)c(F)cc(C(=O)NCc4cc(C(F)(F)F)ccc4F)c3F)ccc2n1 [Example 369, 3-{2-acetamidoimidazo [1,2-b]pyridazin-6-yl}-2,4,5-trifluoro-N-{[2-fluoro-5-(trifluoromethyl)phenyl]methyl} benzamide] | 61 | –
14 | CC(=O)Nc1cn2nc(-c3cc(F)c(C)c(C(=O)NCc4cc(-c5cnn(C)c5)ccc4F)c3)ccc2n1 [Example 358, 5-(2-acetamidoimidazo[1,2-b]pyridazin-6-yl)-3-fluoro-N-(2-fluoro-5-(1-methyl-1H-pyrazol-4-yl)benzyl)-2-methylbenzamide] | 49 | –
15 | Cc1ncc(-c2ccc3nc(NC(=O)CN4CCOCC4)cn3n2)cc1C(=O)NCC[C@H](O)c1ccc(Cl)cc1 [Example 346, N-[(3S)-3-(4-chlorophenyl)-3-hydroxypropyl]-2-methyl-5-{2-[2-(morpholin-4-yl)acetamido]imidazo[1,2-b]pyridazin-6-yl}pyridine-3-carboxamide] | 82 | –
16 | CC(=O)Nc1cn2nc(-c3ccc(C)c(C(=O)Nc4cnn(Cc5ccccc5)c4)c3)ccc2n1 [Example 399, N-(1-benzyl-1H-pyrazol-4-yl)-5-{2-acetamidoimidazo [1,2-b]pyridazin-6-yl}-2-methylbenzamide] | 5 | –
17 | CC(=O)Nc1cn2nc(-c3cc(C(=O)NCc4cc(OC(F)(F)F)ccc4F)ccc3C)ccc2n1 [Example 433, 3-{2-acetamidoimidazo [1,2-b]pyridazin-6-yl}-N-{[2-fluoro-5-(trifluoromethoxy)phenyl]methyl}-4-methylbenzamide] | 34 | –
18 | COc1ccc(-c2ccc3nc(NC(C)=O)cn3n2)c(F)c1C(=O)NCC[C@@H](O)c1ccc(Cl)cc1 [Example 374, N-[(3R)-3-(4-chlorophenyl)-3-hydroxypropyl]-3-{2-acetamidoimidazo [1,2-b]pyridazin-6-yl}-2-fluoro-6-methoxybenzamide] | 19 | –
19 | COc1ncc(-c2ccc3nc(NC(C)=O)cn3n2)cc1C(=O)NCc1ncccc1OCC(F)(F)F [Example 101, 5-{2-acetamidoimidazo[1,2-b]pyridazin-6-yl}-2-methoxy-N-{[3-(2,2,2-trifluoroethoxy)pyridin-2-yl]methyl}pyridine-3-carboxamide, 2 TFA] | – | IC50 [2]: 248 nM
20 | CC(=O)Nc1cn2nc(-c3c(F)ccc(C(=O)N[C@H](C)c4cc(C(F)(F)F)ccc4F)c3F)ccc2n1 [Example 423, 3-{2-acetamidoimidazo [1,2-b]pyridazin-6-yl}-2,4-difluoro-N-[(1R)-1-[2-fluoro-5-(trifluoromethyl)phenyl]ethyl] benzamide] | 109 | –
21 | COc1ncc(-c2ccc3nc(NC(C)=O)cn3n2)cc1C(=O)NCc1cc(F)cc(F)c1C(=O)N1CCC(F)(F)C1 [Example 324, N-{[2-(3,3-difluoropyrrolidine-1-carbonyl)-3,5-difluorophenyl]methyl}-5-{2-acetamidoimidazo[1,2-b]pyridazin-6-yl}-2-methoxypyridine-3-carboxamide] | 3 | –

Reference: US11440913B2, “Aminoimidazopyridazines as kinase inhibitors” (BRISTOL-MYERS SQUIBB COMPANY, priority 2017, dated 2022)
